Experimental data from patent US8551997B2, “Structural-based inhibitors of the glutathione binding site in aldose reductase, methods of screening therefor and methods of use” (The Board of Regents of the University of Texas System, priority 2004, dated 2013).

Columns and labels:
rat VSMC cells = test: High glucose-induced TNF-a production in VSMC; type: cell-based; conditions: for high glucose-induced TNF-a secretion: preincubated 1 h, then 19.5 mM glucose, apocyanin 25 mM, calphostin C 0.2 mM, N-acetyl cysteine 10 mM, sorbinil or tolrestat 10 mM each, or AR antisense ablated
Procedure: Growth-arrested VSMC in 5.5 mM glucose (NG) were preincubated for 1 h without or with apocyanin (25 mM), D609 (100 mM), calphostin C (0.2 mM), N-acetyl cysteine (10 mM) and NF-kB inhibitor (18 mM) (FIG. 4A) and without or with sorbinil or tolrestat (10 mM each) (FIG. 4B) followed by the addition of glucose (19.5 mM) and incubation for the indicated times. AR antisense ablated VSMC were incubated with HG for the indicated times (FIG. 4C).
Growth-arrested VSMC in 5.5 mM glucose (NG) were preincubated for 1 h without or with apocyanin (25 mM), D609 (100 mM), calphostin C (0.2 mM), N-acetyl cysteine (10 mM) and NF-kB inhibitor (18 mM) respectively, followed by the addition of 19.5 mM glucose, after which the cells were incubated for 12 and 24 hrs.

A549 cells [1] = test: Western blot of cell cycle regulatory proteins in A549 cells; type: cell-based, human; conditions: various concentrations
Procedure: (§1) To examine expression of any of Cox-1, Cox-2, phospho-PKC-2, GAPDH, E2F1, Cyclin D1, Cyclin E, and iNOS proteins, Western blot analyses were carried by known methods (15). Equal amounts of protein from cell extracts were subjected to 12% SDS-PAGE followed by transfer of proteins to nitrocellulose filters, probing with the indicated antibodies, and the antigen-antibody complex was detected by enhanced chemiluminescence (Pierce, Piscataway, N.J., USA).

A549 cells [2] = test: Western blot of Cox-2 and iNOS in A549 cells; type: cell-based, human; conditions: concentration dependent
Procedure: as §1

Caco-2 cells [3] = test: Reactive oxygen species in Caco-2 cells (DCFH-DA); type: cell-based, human; conditions: 20 μM, FGF or PDGF 10 ng/ml 60 min
Procedure: Caco-2 cells were plated in a 24-well plate at a density of 1.5×10^4 cells/well in DMEM and then serum-starved at 60-70% confluence in the absence and presence of 20 μM sorbinil or tolrestat for overnight in phenol red-free DMEM supplemented with 0.1% FBS. Cells were then pre-incubated for 30 min with the ROS-sensitive fluorophore 2′,7′-dichlorofluorescein diacetate (DCFH-DA), which is taken up and oxidized to the fluorescent dichlorofluorescein by intracellular ROS. After incubation with DCFH-DA, the cells were exposed to FGF or PDGF 10 ng/ml for 60 min and fluorescence was measured with a CytoFluorII fluorescence plate reader (PerSeptive Biosystems, Inc., Framingham, Mass.) at excitation of 485 nm and emission of 528 nm.

A549 cells [4] = test: A549 cell proliferation, MTT assay; type: cell-based; conditions: Homo sapiens, 24 hrs
Procedure: A549 cells were grown to confluence in Ham's F12K medium containing 10% FBS and harvested, and plated at 5000 cells per well in a 96-well plate. After 24 hrs A549 cells were treated with or without AR inhibitor sorbinil or tolrestat with various concentrations for another 24 hrs. Cells incubated without AR inhibitors served as control. Cell viability was determined by and MTT assay.

RAW264.7 macrophages = test: LPS- and lipid aldehyde-induced signaling in RAW264.7 macrophages; type: cell-based
Procedure: At the indicated times, cells were harvested for measurement of HNE (FIG. 5A), protein-HNE adducts (FIG. 5B), NF-kB (FIG. 5C), and TNF-a and IL-6 (FIG. 5D) as described in the methods. Cells were growth arrested as described above or transfected with control or AR siRNA oligonucleotides, incubated with GS-HNE-ester, or GS-DHN-ester (1 mM), and harvested for determination of NF-kB (FIG. 5E), membrane-bound total PKC (FIG. 5F).
To determine if GS-DHN serves as a cellular sensor of ROS-induced insults, its effects on phosphorylation events upstream of IKK/NF-κB activation in RAW264.7 macrophages was examined.

A549 xenografts = A549 xenografts in nude mice; type: in vivo, mouse
Procedure: The levels of ROS in sections of A549 xenografts was determined using dihydroethidium (Het; Molecular Probes, Eugene, Oreg.). The Het dye gives red fluorescence when oxidized to EtBr in the presence of ROS such as O2. Serial sections ([…]) of para-formaldehyde fixed xenografts were deparafinized and rehydrated and incubated with Het dye (5 μM in PBS) for 30 min at 37° C. followed by acquisition of images using a fluorescence microscope 200× magnification.
Nine mice (20 weeks old) were divided into three groups of three animals and were treated with PBS, scrambled AR siRNA, and AR-siRNA, respectively. All nine animals were injected with 2×10^6 A549 human lung carcinoma cell suspensions in 100 μl PBS s.c. Animals were examined daily for signs of tumor growth. Treatment was given two times (day 1 and day 14) when the tumor surface area approximately 45 mm^2 (day 25). Treatment consisted of 200 μg AR-siRNA in 100 μl PBS. Control groups were treated with 200 μg/100 μl scrambled siRNA or diluent (PBS) alone. For the determination of effect of AR inhibitor, animals were fed with zopolrestat (40 mg/kg body weight) in the diet. Tumors were measured in two dimensions using calipers.
Serial sections ([…]) of para-formaldehyde fixed xenografts were deparafenized and rehydrated and incubated with peptide specific AR antibodies and developed using DakoCytomation LSAB+System-HRP kit. The intensity of staining was observed under light microscope with 200× magnification.
The results obtained from in vitro studies were confirmed by in vivo nude mice model bearing human lung carcinoma A549 cells. A549 (2×10^6) cells were implanted s.c. and allowed to grow in nu/nu nude mice to ˜45 mm^2 over a period of 25 days. Animals were grouped into control and experimental groups. Control group were fed with regular diet and experimental group was fed with AR inhibitor, Zopolrestat (after 10 days dose increased from 20 mg to 40 mg/kg/body weight) for until end of the experiment. Tumor growth was measured every two days using calipers. The photographs of animals were taken at days 1, 14, and 37 (FIGS. 20A-20B).

SW480 xenografts = system: SW480 xenografts; set-up: tumor progression: dose or concentration left out as unconfirmed
Procedure: Nine 20-weeks-old athymic nu/nu nude mice were divided into three groups of 3 animals (Group 1: treated with PBS; Group 2: treated with scrambled siRNA and Group 3: treated with aldose-reductase siRNA). An aliquot of 2×10^6 SW480 human colon adenocarcinoma cell suspensions in 100 μl PBS was injected subcutaneously into one flank of each nu/nu nude mouse. Animals were examined daily for signs of tumor growth. Treatment was administered when the tumor surface area exceeded 45 mm^2, i.e., day 25. Treatment consisted of 200 mg aldose-reductase siRNA in 100 ml PBS administered intraperitoneally. Control groups were treated with 200 mg/100 ml scrambled siRNA, or diluent (PBS) alone. Mice were treated on days 1 and 14. Tumors were measured in two dimensions using calipers over 40 days.

Caco-2 cells [5] = test: PGE2 assay in Caco-2 cells; type: cell-based, human; conditions: preincubation with inhibitor 30 min, BFGF or PDGF 24 h
Procedure: (§2) Caco-2 cells were plated in 6 well plates at a density of 2×10^5 cells/well. After 24 hours, the medium was replaced with fresh medium containing 0.1% serum with or without, sorbinil (20 μM) followed by treatment with either 10 ng/ml BFGF or PDGF, for another 24 h. HT29 cells were plated in 6 well plate at a density of 2×10^5 cells/well. After 24 hours, medium was replaced with serum-free medium with or without, sorbinil or zopolrestat (20 μM) followed by treatment with either EGF (5 ng/ml) or BFGF (10 ng/ml) for another 24 h. The medium from each cell lines was collected from each well and analyzed for PGE2 by using an Enzyme Immuno Assay kit according to the manufacturer's instructions (Cayman Chemical Co., Inc.).
Briefly, 50 μl of diluted standard/sample were pipetted into a pre-coated goat polyclonal anti-mouse IgG 96-well plate. Aliquots (50 μl) of a PGE2 monoclonal antibody and PGE2 acetylcholine esterase (AchE) conjugate, (PGE2 tracer) were added to each well and allowed to incubate at 4° C. for 24 h. After incubation, the wells were washed five times with wash buffer containing 0.05% Tween-20, followed by the addition of 200 μl of Ellman's reagent containing acetylthiocholine and 5,5′-dithio-bis-(2-nitrobenzoic acid). Samples were read after 60 min at 412 nm with an ELISA reader. In this procedure the intensity of yellow color, is proportional to the amount of PGE2 tracer bound to the well and is inversely proportional to the amount of free PGE2 present in the well during incubation.

HT29 cells [6] = test: PGE2 assay in HT29 cells; type: cell-based; conditions: inhibitor alone
Procedure: as §2
Briefly, 50 μl of diluted standard/sample were pipetted into a pre-coated goat polyclonal anti-mouse IgG 96-well plate. Aliquots (50 μl) of a PGE2 monoclonal antibody and PGE2 acetylcholine esterase (AchE) conjugate, (PGE2 tracer) were added to each well and allowed to incubate at 4° C. for 24 h. After incubation, the wells were washed five times with wash buffer containing 0.05% Tween-20, followed by the addition of 200 μl of Ellman's reagent containing acetylthiocholine and 5,5′-dithio-bis-(2-nitrobenzoic acid). Samples were read after 60 min at 412 nm with an ELISA reader. […]

HT29 cells [7] = test: HT29 cell proliferation, MTT assay; type: cell-based; conditions: inhibitor alone
Procedure: HT29 cells were grown to confluence in McCoy's medium and harvested and plated 2,500 per well in a 96-well plate. Subconfluent cells were growth arrested in 0.1% FBS with or without AR inhibitor sorbinil or zopolrestat (20 μM). After 24 hours, EGF (5 ng/ml) or BFGF (10 ng/ml) was added to the medium and the cells were incubated for another 24 hours. Cells incubated with the AR inhibitors alone served as control. Cell viability was determined by an MTT assay.

aldose reductase = aldose reductase (Homo sapiens, UniProt P15121); conditions: cited from earlier work
[8] = compared to control and scrambled siRNA

## COc1ccc2c(C(=S)N(C)CC(=O)O)cccc2c1C(F)(F)F [tolrestat]
Rat VSMC cells; media containing 5.5 mM glucose, mannitol, or 3-OMG
  basal levels of TNF-a: did not affect
Rat VSMC cells
  high glucose-induced TNF-a secretion: prevents
A549 cells [1]
  E2F-1, Cyclin E and Cyclin D1 expression: significant inhibition
A549 cells [2]
  Cox-2 and iNOS expression: inhibit
Caco-2 cells [3]
  growth factor-induced increase in ROS: inhibited
A549 cells [4]
  inhibition at 100 µM: > 75%

## AR-siRNA: AR-siRNA (5′-AATCGGTGTCTCCAACTTCAA-3′; SEQ ID NO: 1) synthesized by Dharmacon Research (chemistry not given here)
RAW264.7 macrophages
  ability of GS-DHN to activate NF-κB: had no effect
  effects of HNE/GS-HNE on IKK-a/b phosphorylation and NF-kB translocation: significantly blunted
A549 xenografts; [8]
  AR protein expression in xenograft sections: significantly prevention
  ROS production in xenograft sections (HEt red fluorescence): significantly reduced
A549 xenografts; i.p. 200 μg AR-siRNA in 100 μl PBS on days 1 and 14
  progression of tumor growth: inhibited completely
SW480 xenografts; intraperitoneally, days 1 and 14
  tumor progression: completely arrested
SW480 xenografts; mouse, in vivo
  normal weight gain of animals: without interfering

## CC(=O)N[C@@H](CS)C(=O)O [N-acetylcysteine]
Caco-2 cells [5]
  growth factor-induced production of PGE2: attenuated

## O=C(O)Cc1nn(Cc2nc3cc(C(F)(F)F)ccc3s2)c(=O)c2ccccc12 [zopolrestat, 3,4-dihydro-4-oxo-3-[[5-(trifluoromethyl)-2-benzothiazolyl]methyl]-1-phthalazineacetic acid]
HT29 cells [6]
  constitutive levels of PGE2: did not inhibit
HT29 cells [7]
  HT29 cells proliferation: did not cause any effect
A549 xenografts; zopolrestat in the diet
  normal weight gain of animals: None of the treatments interfered
A549 xenografts; zopolrestat in the diet, 20 mg to 40 mg/kg/body weight
  tumor progression: completely arrested

## calphostin C
Rat VSMC cells
  high glucose-induced TNF-a secretion: markedly decreased
Caco-2 cells [5]
  growth factor-induced production of PGE2: attenuated

## N[C@@H](CCC(=O)N[C@@H](CSC(CC(=O)O)C(=O)O)C(=O)NCC(=O)O)C(=O)O (stereo partly drawn) [DCEG, S-(1,2-dicarboxyethyl) glutathione, γ-glutamyl-S-(1,2-dicarboxyethyl)cysteinylglycine]
Aldose reductase
  inhibition of AR-catalyzed reaction of glutathionyl-propanal: competitive inhibitor
  inhibition of aldehyde reduction by aldose reductase: competitive inhibitor

## glutathionyl-1,4-dihydroxynonene [GS-DHN]
RAW264.7 macrophages; within 60 min
  increase of protein kinase C (PKC) activity after GS-DHN challenge: ~2.5 fold
